Reference: US20260374739A1, “SMALL MOLECULAR WEIGHT CHEMICAL COMPOUND TO ANTAGONIZE EPH-EPHRIN TETRAMERIZATION AND INHIBIT BIDIRECTIONAL SIGNALING” (THE BOARD OF REGENTS OF THE UNIVERSITY OF TEXAS SYSTEM, priority 2022, published 2026)
“And” between values parts separate entries of the source, which are not always exact repeats. Equal values may be shown once. Where a name gives a salt, the structure may show the parent alone. Marks after values point to notes of the source that are not given here. One block for each compound: values may come before it.

What was measured:
[1] = target: T1, EphrinB2-EphB4 (Homo sapiens, UniProt P54760); assay: Octet 80 sec association/500 sec dissociation, immobilized human EphrinB2-Fc binding to soluble human EphB4-His; settings: immobilized human EphrinB2, 25 nM soluble human EphB4; for EphB4 Inhibition Percent, Inhibition of Association ONLY: at 3.2 μM and 80 seconds; for EphB4 Inhibition Percent, Inhibition of Association-Dissociation: at 3.2 μM and 580 seconds
T1 construct: soluble human EphB1-His, EphB2-His, and EphB4-His ectodomains; commercially available human EphrinB1-Fc (EB1), EphrinB2-Fc (EB2), and EphrinB3-Fc (EB3) ectodomain proteins; purchased
T1 sequence (P54760 16-539 limits assumed): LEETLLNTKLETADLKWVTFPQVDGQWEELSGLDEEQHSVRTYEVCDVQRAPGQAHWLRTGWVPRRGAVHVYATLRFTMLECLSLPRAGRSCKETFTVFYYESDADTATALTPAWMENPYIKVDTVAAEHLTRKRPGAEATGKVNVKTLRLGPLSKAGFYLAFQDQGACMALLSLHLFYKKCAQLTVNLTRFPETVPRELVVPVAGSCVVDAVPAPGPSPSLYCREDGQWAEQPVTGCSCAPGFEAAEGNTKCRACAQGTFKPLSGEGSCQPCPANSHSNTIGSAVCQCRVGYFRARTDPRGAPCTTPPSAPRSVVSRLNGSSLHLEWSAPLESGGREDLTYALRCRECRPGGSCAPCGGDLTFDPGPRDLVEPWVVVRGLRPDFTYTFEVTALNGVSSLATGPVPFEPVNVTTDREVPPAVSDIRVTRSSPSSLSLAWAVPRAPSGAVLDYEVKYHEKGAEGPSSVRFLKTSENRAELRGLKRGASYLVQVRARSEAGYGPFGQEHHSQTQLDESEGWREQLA
Method: (§1) In another experiment, whether certain A20 analogs might have specificity for different Eph receptors was tested. An Octet RED384 system was used to obtain biophysical ON-OFF binding data (association-dissociation) for the three different human EphrinB2-EphB1, EphrinB2-EphB2, and EphrinB2-EphB4 protein-protein interactions and to assess the effect of A20 chemicals on the binding kinetics.
(§2) FIGS. 72A-72C show three example Octet sensorgram response traces for the immobilized human EphrinB2 ectodomain protein binding to soluble forms of the human EphB1, EphB2, and EphB4 ectodomain proteins, in the absence or presence of an A20 chemical (buffer conditions are always PBSTD:PBS with 0.05% Tween-20, 1% DMSO, and +/− indicated chemical). After loading EphrinB2-Fc protein to Octet AHC biosensors, washing, and obtaining stable baseline measurements in the appropriate PBSTD (either with or without indicated chemical), the sensors are placed in its buffer that also contains the indicated soluble EphB protein for the association step (0-80″), and then returned to its buffer for the dissociation step (81″-580″). In each figure (FIGS. 72A-72C), a sensorgram run using 10 μM of the 2×HCl salt form of A20-I is compared to the no compound control run to exemplify the maximum level of reduced response signal typically obtained with a potent A20 chemical.
(§3) Because the response levels during the dissociation step plateau for the EphrinB2-EphB2 and EphrinB2-EphB1 interactions by the first 80″, AUCs were also calculated for run data encompassing the first 160″ of each experiment to account for both the 80″ association data (red asterisks) and the first 80″ of dissociation data (marked by green line and asterisks).
(§4) The selectivity of another A20 analog (a 3×HCL salt form of compound BQPB4) in comparison to previously tested compound, A20-1, was tested as described in Example 27 above.
(§5) Further to the experiments listed above, a series of dose-response experiments were conducted to determine the IC50 of a selected A20 chemical (A20-1) on the kinetics of human EphrinB2 ligand ectodomain protein binding to its cognate human EphB1, EphB2, and EphB4 receptor ectodomain proteins. FIG. 74A-74C are representative sensorgrams showing the effect of 0, 0.1, 0.2, 0.4, 0.8, 1.6, and 3.2 μM, concentrations of the 2×HCl salt of A20-I along with a 10 μM max standard (also A20-1) on three different Ephrin-EphB interactions (e.g., EphB1 in FIG. 74A, EphB2 in FIG. 74B and EphB4 in FIG. 74C). […] Additional IC50 values were determined at specific timepoints, at 75″ into the association step and at 55″ into the dissociation step (135″).
(§6) All absolute and relative IC50 values are provided in the Table 6 below, where absolute are based off the full binding sensorgram traces, and relative are based off of the max control traces.
(§7) In another experiment, the % inhibition for various A20 analog chemicals against the three different EphrinB2-EphB protein interactions was determined. Specifically, the percent inhibition for immobilized human EphrinB2-Fc binding to 25 nM soluble human EphB1-His (FIG. 76A, enlarged in FIG. 76D), EphB2-His (FIG. 76B, enlarged in FIG. 76E), and EphB4-His (FIG. 76C, enlarged in FIG. 76F) with 3511-I, 8009-9255, QTM-Br, A19, A19-NO2, and IM (all at 3.2 μM) was determined.

[2] = target: T2, EphrinB2-EphB2 (Homo sapiens, UniProt P29323); assay: Octet tetramerization inhibition, immobilized human EphrinB2 binding to 50 nM soluble human EphB2; settings: for IC50: EphrinB2-EphB2
T2 construct: soluble human EphB1-His, EphB2-His, and EphB4-His ectodomains; commercially available human EphrinB1-Fc (EB1), EphrinB2-Fc (EB2), and EphrinB3-Fc (EB3) ectodomain proteins; purchased
T2 sequence (P29323 19-543 limits assumed): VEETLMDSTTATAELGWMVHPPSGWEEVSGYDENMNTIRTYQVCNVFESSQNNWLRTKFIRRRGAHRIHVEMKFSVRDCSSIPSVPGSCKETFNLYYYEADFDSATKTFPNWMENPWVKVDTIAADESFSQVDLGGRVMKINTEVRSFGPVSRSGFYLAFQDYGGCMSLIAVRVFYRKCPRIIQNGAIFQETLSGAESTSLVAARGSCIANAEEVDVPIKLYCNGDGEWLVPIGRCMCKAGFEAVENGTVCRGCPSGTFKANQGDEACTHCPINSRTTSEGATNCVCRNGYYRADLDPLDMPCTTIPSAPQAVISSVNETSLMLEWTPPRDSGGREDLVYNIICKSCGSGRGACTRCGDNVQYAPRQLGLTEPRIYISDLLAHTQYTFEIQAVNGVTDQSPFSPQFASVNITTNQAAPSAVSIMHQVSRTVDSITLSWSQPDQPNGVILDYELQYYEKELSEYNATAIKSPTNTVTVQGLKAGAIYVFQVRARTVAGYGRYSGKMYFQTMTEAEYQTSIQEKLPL

[3] = target: T3, EphrinB2-EphB1 (Homo sapiens, UniProt P54762); assay: Octet 80 sec association/500 sec dissociation, immobilized human EphrinB2-Fc binding to soluble human EphB1-His; settings: immobilized human EphrinB2, 25 nM soluble human EphB1; for EphB1 Inhibition Percent, Inhibition of Association ONLY: at 3.2 μM and 80 seconds; for EphB1 Inhibition Percent, Inhibition of Association-Dissociation: at 3.2 μM and 580 seconds
T3 construct: soluble human EphB1-His, EphB2-His, and EphB4-His ectodomains; commercially available human EphrinB1-Fc (EB1), EphrinB2-Fc (EB2), and EphrinB3-Fc (EB3) ectodomain proteins; purchased
T3 sequence (P54762 18-540 limits assumed): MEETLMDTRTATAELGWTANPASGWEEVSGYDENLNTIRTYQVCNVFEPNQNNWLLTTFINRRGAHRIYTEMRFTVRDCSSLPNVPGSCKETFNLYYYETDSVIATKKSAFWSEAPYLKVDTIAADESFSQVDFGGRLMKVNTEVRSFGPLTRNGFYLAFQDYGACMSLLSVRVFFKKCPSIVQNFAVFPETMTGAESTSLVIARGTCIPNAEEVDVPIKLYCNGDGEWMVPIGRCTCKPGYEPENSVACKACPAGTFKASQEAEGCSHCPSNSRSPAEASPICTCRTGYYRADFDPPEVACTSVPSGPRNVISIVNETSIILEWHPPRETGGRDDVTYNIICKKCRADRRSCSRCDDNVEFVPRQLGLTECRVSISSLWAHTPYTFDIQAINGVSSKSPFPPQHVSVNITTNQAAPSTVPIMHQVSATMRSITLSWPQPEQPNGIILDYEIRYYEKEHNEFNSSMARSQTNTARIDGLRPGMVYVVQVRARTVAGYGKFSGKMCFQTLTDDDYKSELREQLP
Method: as §1, §2, §3, §4, §5, §6, §7

[4] = target: T2, EphrinB2-EphB2; assay: Octet 80 sec association/500 sec dissociation, immobilized human EphrinB2-Fc binding to soluble human EphB2-His; settings: immobilized human EphrinB2, 25 nM soluble human EphB2; for EphB2 Inhibition Percent, Inhibition of Association ONLY: at 3.2 μM and 80 seconds; for EphB2 Inhibition Percent, Inhibition of Association-Dissociation: at 3.2 μM and 580 seconds
Method: as §1, §2, §3, §4, §5, §6, §7

[5] = Absolute Association IC50 (300 sec), Table A
[6] = Absolute Dissociation IC50 (450 sec), Table A
[7] = Relative AUC/IC50, Table A, compound 7: association only
[8] = Relative Association IC50 (300 sec), Table A
[9] = Relative Dissociation IC50 (450 sec), Table A

SMILES: Oc1c(I)cc(CN2CCN(Cc3ccc(Br)cc3)CC2)c2cccnc12 [Compound 46, 5-((4-(4-bromobenzyl)piperazin-1-yl)methyl)-7-iodoquinolin-8-ol]
EphB4 Inhibition Percent, Inhibition of Association ONLY [1]: 18.1% | EphB4 Inhibition Percent, Inhibition of Association-Dissociation [1]: 32.0% | tetramerization inhibitor activity [2]: exhibit strong IC50 values | IC50 ([2]; Absolute AUC/IC50, Table A): 630 nM | IC50 [2, 5]: 720 nM | IC50 [2, 6]: 690 nM | IC50 [2, 7]: 520 nM | IC50 [2, 8]: 480 nM | IC50 [2, 9]: 510 nM | EphB1 Inhibition Percent, Inhibition of Association ONLY [3]: 51.6% | EphB1 Inhibition Percent, Inhibition of Association-Dissociation [3]: 57.2% | EphB2 Inhibition Percent, Inhibition of Association ONLY [4]: 53.0% | EphB2 Inhibition Percent, Inhibition of Association-Dissociation [4]: 69.6%

SMILES: Oc1ccc(CN2CCN(c3ccc(Br)cc3)CC2)c2cccnc12 [Compound 27, 5-((4-(4-bromophenyl)piperazin-1-ium-1-yl)methyl)-8-hydroxyquinolin-1-ium chloride]
EphB4 Inhibition Percent, Inhibition of Association ONLY [1]: 11.4/11.4% | EphB4 Inhibition Percent, Inhibition of Association-Dissociation [1]: 19.5% and 12.6% | IC50 ([2]; Absolute AUC/IC50, Table A): > 1600 nM | IC50 [2, 5]: > 1600 nM | IC50 [2, 6]: > 1600 nM | IC50 [2, 7]: 420 nM | EphB1 Inhibition Percent, Inhibition of Association ONLY [3]: 24.2% and 33.8% | EphB1 Inhibition Percent, Inhibition of Association-Dissociation [3]: 57.1% and 43.8% | EphB2 Inhibition Percent, Inhibition of Association ONLY [4]: 16.8% and 29.2% | EphB2 Inhibition Percent, Inhibition of Association-Dissociation [4]: 60.9% and 43.7%

SMILES: Oc1c(Br)cc(CN2CCN(Cc3ccc(Br)cc3)CC2)c2cccnc12 [Compound 45, 7-bromo-5-((4-(4-bromobenzyl)piperazin-1-ium-1-yl)methyl)-8-hydroxyquinolin-1-ium chloride]
EphB4 Inhibition Percent, Inhibition of Association ONLY [1]: 4.9% | EphB4 Inhibition Percent, Inhibition of Association-Dissociation [1]: 28.3% | IC50 ([2]; Absolute AUC/IC50, Table A): 760 nM | IC50 [2, 5]: 790 nM | IC50 [2, 6]: 720 nM | IC50 [2, 8]: 560 nM | IC50 [2, 9]: 590 nM | EphB1 Inhibition Percent, Inhibition of Association ONLY [3]: 37.3% | EphB1 Inhibition Percent, Inhibition of Association-Dissociation [3]: 49.9% | EphB2 Inhibition Percent, Inhibition of Association ONLY [4]: 62.1% | EphB2 Inhibition Percent, Inhibition of Association-Dissociation [4]: 77.1%

Next, values leading:

EphB4 Inhibition Percent, Inhibition of Association ONLY [1]: 0*% | EphB4 Inhibition Percent, Inhibition of Association-Dissociation [1]: 11.4% | tetramerization inhibitor activity [2]: eliminated the activity | EphB1 Inhibition Percent, Inhibition of Association ONLY [3]: 16.3% | EphB1 Inhibition Percent, Inhibition of Association-Dissociation [3]: 33.8% | EphB2 Inhibition Percent, Inhibition of Association ONLY [4]: 10.5% | EphB2 Inhibition Percent, Inhibition of Association-Dissociation [4]: 27.6%
SMILES: Oc1ccc(CN2CCN(c3ccc(C(F)(F)F)cc3)CC2)c2cccnc12 [Compound 103, 5-((4-(4-(trifluoromethyl)phenyl)piperazin-1-yl)methyl)quinolin-8-ol]

EphB4 Inhibition Percent, Inhibition of Association ONLY [1]: 0.5% | EphB4 Inhibition Percent, Inhibition of Association-Dissociation [1]: 0.5% | EphB1 Inhibition Percent, Inhibition of Association ONLY [3]: 21.4% | EphB1 Inhibition Percent, Inhibition of Association-Dissociation [3]: 23.6% | EphB2 Inhibition Percent, Inhibition of Association ONLY [4]: 20.9% | EphB2 Inhibition Percent, Inhibition of Association-Dissociation [4]: 21.2%
SMILES: Oc1ccc(CN2CCN(C3CCCC3)CC2)c2cccnc12 [Compound 83, 5-((4-cyclopentylpiperazin-1-yl)methyl)quinolin-8-ol]

EphB4 Inhibition Percent, Inhibition of Association ONLY [1]: 17.5% | EphB4 Inhibition Percent, Inhibition of Association-Dissociation [1]: 35.6% | EphB1 Inhibition Percent, Inhibition of Association ONLY [3]: 39.6% | EphB1 Inhibition Percent, Inhibition of Association-Dissociation [3]: 52.3% | EphB2 Inhibition Percent, Inhibition of Association ONLY [4]: 58.7% | EphB2 Inhibition Percent, Inhibition of Association-Dissociation [4]: 73.2%
SMILES: COc1ccccc1N1CCN(Cc2cc(I)c(O)c3ncccc23)CC1 [Compound 71-A, 7-iodo-5-((4-(2-methoxyphenyl)piperazin-1-yl)methyl)quinolin-8-ol dihydrochloride]
